Measurements from patent US20130281449A1, “Oxazine Derivatives and their Use in the Treatment of Neurological Disorders” (NOVARTIS AG, priority 2011, published 2013).
pIC50: −log10 of the molar value. Structures can show the parent of a compound that is named as a salt.

Assays:
Human BACE-1 = Human BACE-1 (Homo sapiens, UniProt P56817); assay: Test 1: Inhibition of Human BACE-1; format: biochemical; details: mean IC50 values in Test 1; recombinant BACE-1, pH 4.5
Method: Test 1: Inhibition of Human BACE-1
IC50 values are calculated from percentage of inhibition of BACE-1 activity as a function of the test compound concentration.

[1] = system: Cellular Release of Amyloid Peptide 1-40; assay: Test 4: Inhibition of Cellular Release of Amyloid Peptide 1-40; format: cell-based, Chinese hamster; details: Cricetulus griseus, 24 h; read-out: Amyloid-β1-40 release IC50
Method: Chinese hamster ovary cells are transfected with the human gene for amyloid precursor protein. The cells are plated at a density of 8000 cells/well into 96-well microtiter plates and cultivated for 24 hours in DMEM cell culture medium containing 10% FCS. The test compound is added to the cells at various concentrations, and the cells are cultivated for 24 hours in the presence of the test compound. […] The potency of the compound is calculated from the percentage of inhibition of amyloid peptide release as a function of the test compound concentration.

Sequence of Human BACE-1 (P56817 46-457 limits assumed): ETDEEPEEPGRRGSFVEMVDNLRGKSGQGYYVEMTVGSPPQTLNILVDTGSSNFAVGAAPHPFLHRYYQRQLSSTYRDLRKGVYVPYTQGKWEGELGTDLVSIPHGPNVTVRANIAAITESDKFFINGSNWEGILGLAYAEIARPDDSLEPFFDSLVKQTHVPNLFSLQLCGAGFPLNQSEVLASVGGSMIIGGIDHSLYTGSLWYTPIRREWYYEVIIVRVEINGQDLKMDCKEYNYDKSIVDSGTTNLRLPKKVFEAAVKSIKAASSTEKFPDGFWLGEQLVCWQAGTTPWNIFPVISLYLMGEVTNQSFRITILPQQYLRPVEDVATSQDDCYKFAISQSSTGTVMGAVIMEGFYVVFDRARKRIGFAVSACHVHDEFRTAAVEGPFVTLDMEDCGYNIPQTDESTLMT

pIC50 (Human BACE-1)	pIC50 [1]	SMILES
7.17	6.80	Cc1nc(C(=O)Nc2ccc(F)c([C@]3(C)CO[C@@](C)(C(F)(F)F)C(N)=N3)c2)c(C)o1 [Example 23, 2,5-Dimethyl-oxazole-4-carboxylic acid [3-((3R,6R)-5-amino-3,6-dimethyl-6-trifluoromethyl-3,6-dihydro-2H-[1,4]oxazin-3-yl)-4-fluoro-phenyl]-amide hydrochloride]
6.82	7.21	COc1cc(C(F)F)c(C(=O)Nc2ccc(F)c([C@]3(C)CO[C@@](C)(C(F)(F)F)C(N)=N3)c2)nn1 [Example 30, 4-Difluoromethyl-6-methoxy-pyridazine-3-carboxylic acid [3-((3R,6R)-5-amino-3,6-dimethyl-6-trifluoromethyl-3,6-dihydro-2H-[1,4]oxazin-3-yl)-4-fluoro-phenyl]-amide hydrochloride]
7.80	8.00	C[C@@]1(c2cc(NC(=O)c3ncc(C(F)(F)F)cc3Cl)ccc2F)CO[C@@](C)(C(F)(F)F)C(N)=N1 [Example 34, 3-Chloro-5-trifluoromethyl-pyridine-2-carboxylic acid [3-((3R,6R)-5-amino-3,6-dimethyl-6-trifluoromethyl-3,6-dihydro-2H-[1,4]oxazin-3-yl)-4-fluoro-phenyl]-amide]
7.85	8.22	Cc1cc(OC(F)F)cnc1C(=O)Nc1ccc(F)c([C@]2(C)CO[C@@](C)(C(F)(F)F)C(N)=N2)c1 [Example 24, 5-Difluoromethoxy-3-methyl-pyridine-2-carboxylic acid [3-((3R,6R)-5-amino-3(6-dimethyl-6-trifluoromethyl-3,6-dihydro-2H-[1,4]oxazin-3-yl)-4-fluoro-phenyl]-amide hydrochloride]
9.00	9.00	C#CCOc1cnc(C(=O)Nc2ccc(F)c([C@]3(C)CO[C@@](C)(C(F)(F)F)C(N)=N3)c2)c(N)n1 [Example 25, 3-Amino-5-prop-2-ynyloxy-pyrazine-2-carboxylic acid [3-((3R,6R)-5-amino-3,6-dimethyl-6-trifluoromethyl-3,6-dihydro-2H-[1,4]oxazin-3-yl)-4-fluoro-phenyl]-amide]
8.05	8.40	C[C@@]1(c2cc(NC(=O)c3ncc(C#N)cc3Cl)ccc2F)CO[C@@](C)(C(F)(F)F)C(N)=N1 [Example 17, 3-Chloro-5-cyano-pyridine-2-carboxylic acid [3-((3R,6R)-5-amino-3,6-dimethyl-6-trifluoromethyl-3,6-dihydro-2H-[1,4]oxazin-3-yl)-4-fluoro-phenyl]-amide hydrochloride]
6.66	7.10	COc1ccc(C(=O)Nc2ccc(F)c([C@]3(C)CO[C@@](C)(C(F)(F)F)C(N)=N3)c2)c(N)n1 [Example 44, 2-Amino-N-[3-((3R,6R)-5-amino-3,6-dimethyl-6-trifluoromethyl-3,6-dihydro-2H-[1,4]oxazin-3-yl)-4-fluoro-phenyl]-6-methoxy-nicotinamide]
7.55	7.74	[2H]C([2H])([2H])Oc1cnc(C(=O)Nc2ccc(F)c([C@]3(C)CO[C@@](C)(C(F)(F)F)C(N)=N3)c2)c(C)c1 [Example 36, 5-Trideuteromethoxy-3-methyl-pyridine-2-carboxylic acid [3-((3R,6R)-5-amino-3,6-dimethyl-6-trifluoromethyl-3,6-dihydro-2H-[1,4]oxazin-3-yl)-4-fluoro-phenyl]-amide]
5.59	6.14	COc1ccc(C(=O)Nc2ccc(F)c([C@]3(C)CO[C@@](C)(C(F)(F)F)C(N)=N3)c2)c(Cl)n1 [Example 45, N-[3-((3R,6R)-5-Amino-3,6-dimethyl-6-trifluoromethyl-3,6-dihydro-2H-[1,4]oxazin-3-yl)-4-fluoro-phenyl]-2-chloro-6-methoxy-nicotinamide]
7.96	8.05	[2H]C([2H])([2H])OCc1cc(C#N)cnc1C(=O)Nc1ccc(F)c([C@]2(C)CO[C@@](C)(C(F)(F)F)C(N)=N2)c1 [Example 31, 5-Cyano-3-trideuteromethoxymethyl-pyridine-2-carboxylic acid [3-((3R,6R)-5-amino-3,6-dimethyl-6-trifluoromethyl-3,6-dihydro-2H-[1,4]oxazin-3-yl)-4-fluoro-phenyl]-amide]

The remaining lines, values behind:

SMILES	pIC50 (Human BACE-1)	pIC50 [1]
Cc1cc(Cl)cnc1C(=O)Nc1ccc(F)c(C2(C)COC(CF)(CF)C(N)=N2)c1 (centres unmarked) [Example 41, 5-Chloro-3-methyl-pyridine-2-carboxylic acid [3-(5-amino-6,6-bis-fluoromethyl-3-methyl-3,6-dihydro-2H-[1,4]oxazin-3-yl)-4-fluoro-phenyl]-amide]	7.32	7.89
N#Cc1cnc(C(=O)Nc2ccc(F)c([C@]3(C(F)F)COCC(N)=N3)c2)c(Cl)c1 [Example 2, 3-Chloro-5-cyano-pyridine-2-carboxylic acid [3-((R)-5-amino-3-difluoromethyl-3,6-dihydro-2H-[1,4]oxazin-3-yl)-4-fluoro-phenyl]-amide]	7.49	7.96
NC1=N[C@@](c2cc(NC(=O)c3ncc(C(F)F)cc3N)ccc2F)(C(F)F)COC1 [Example 12, 3-Amino-5-difluoromethyl-pyridine-2-carboxylic acid [3-((R)-5-amino-3-difluoromethyl-3,6-dihydro-2H-[1,4]oxazin-3-yl)-4-fluorophenyl]-amide]	7.42	8.00
[2H]C([2H])([2H])Oc1cnc(C(=O)Nc2ccc(F)c([C@]3(C(F)F)COCC(N)=N3)c2)c(C)c1 [Example 13, 5-Trideuteromethoxy-3-methyl-pyridine-2-carboxylic acid [3-((R)-5-amino-3-difluoromethyl-3,6-dihydro-2H-[1,4]oxazin-3-yl)-4-fluoro-phenyl]-amide]	6.96	7.66
[2H]C([2H])([2H])Oc1cnc(C(=O)Nc2cc(F)c(F)c([C@]3(C(F)F)COCC(N)=N3)c2)c(Cl)c1 [Example 15, 3-Chloro-5-trideuteromethoxy-pyridine-2-carboxylic acid [3-((R)-5-amino-3-difluoromethyl-3,6-dihydro-2H-[1,4]oxazin-3-yl)-4,5-difluoro-phenyl]-amide]	7.49	7.68
COCc1cc(Cl)cnc1C(=O)Nc1ccc(F)c([C@]2(C(F)F)COCC(N)=N2)c1 [Example 1, 5-Chloro-3-methoxymethyl-pyridine-2-carboxylic acid [3-((R)-5-amino-3-difluoromethyl-3,6-dihydro-2H-[1,4]oxazin-3-yl)-4-fluoro-phenyl]-amide]	7.74	8.22
[2H]C([2H])([2H])Oc1cnc(C(=O)Nc2ccc(F)c([C@]3(C(F)F)COCC(N)=N3)c2)c(N)n1 [Example 3, 3-Amino-5-tris-deutero-methoxy-pyrazine-2-carboxylic acid [3-((R)-5-amino-3-difluoromethyl-3,6-dihydro-2H-[1,4]oxazin-3-yl)-4-fluoro-phenyl]-amide]	7.60	8.05
COc1cnc(C(=O)Nc2ccc(F)c([C@]3(C(F)F)COCC(N)=N3)c2)c(C)c1 [Example 7, 5-Methoxy-3-methyl-pyridine-2-carboxylic acid [3-((R)-5-amino-3-difluoromethyl-3,6-dihydro-2H-[1,4]oxazin-3-yl)-4-fluoro-phenyl]-amide hydrochloride]	6.89	7.96
N#Cc1cnc(C(=O)Nc2ccc(F)c([C@]3(C(F)F)COCC(N)=N3)c2)c(N)c1 [Example 11, 3-Amino-5-cyano-pyridine-2-carboxylic acid [3-((R)-5-amino-3-difluoromethyl-3,6-dihydro-2H-[1,4]oxazin-3-yl)-4-fluoro-phenyl]-amide]	7.74	8.30
